Data from PMC4391719 (PLoS ONE, 2015).
Read-outs that look alike come from different tables or passages of the source. Where a SMILES comes first, the peptide text is derived from it. The star is where a group is joined. NODAGA = O=C(O)CN1CCN(CC(=O)O)CCN(C(CCC(=O)*)C(=O)O)CC1

Columns and labels:
[1] = Biodistribution of ^111In-labelled fragments in CD1 nu/nu mice without tumours; assay type: in vivo, mouse; settings: CD1 nu/nu, mouse, iv, 100 kBq, total radioactivity
Protocol: (§1) Biodistribution of ^111In-PSI-CLNOD1, ^111In-PSI-CLNOD2, ^111In-PSI-CLNOD3 and ^111In-Ex4NOD40 were performed in CD 1 nu/nu mice with tumour xenografts that were prepared as previously described. Six week-old female CD1 nu/nu mice were subcutaneously inoculated in both shoulder regions with 8 x 10^6 CHL-GLP-1R positive cells suspended in PBS pH 7.4. After 4 weeks, the mice were randomly divided into groups of four mice. For the ^111In-labelled fragments mice without tumours were used. The mice were injected with approximately 100 kBq (1–5 pmol) of the respective ^111In-labelled peptide diluted in PBS pH 7.4 with 0.1% BSA via the tail vein and sacrificed after 4 h by CO2 asphyxiation. […] Blood, heart, lungs, spleen, kidneys, pancreas, stomach, intestine, liver, muscle, bone and tumour were removed, weighted and activity determined in a γ-counter (Packard Cobra II Auto Gamma, Perkin Elmer, Switzerland). The percentage of injected activity per gram tissue (%iA/g) was calculated for each sample. The statistical significance was determined using the two-way ANOVA test and corrected for multiple comparisons using Tukey’s honest significance test. The data was log-transformed to account for the variance in the groups.

CD1 nu/nu mice = assay: as above; assay type: in vivo, mouse; settings: ^111In-labelled fragment ~100 kBq i.v. tail vein, mice without tumours, after 4 h
Protocol: as §1

meprin α = assay: recombinant meprin α in meprin assay buffer (50 mM Tris-HCl pH 7.5 + 1 mM MgCl2 + 1 mM CaCl2) and 1 M Tris pH 7.5; settings: 37°C, up to 60 min
meprin β = assay: recombinant meprin β in meprin assay buffer (50 mM Tris-HCl pH 7.5 + 1 mM MgCl2 + 1 mM CaCl2) and 1 M Tris pH 7.5; settings: 37°C, up to 60 min
[2] = in vivo, Biodistribution of fragment, Blood
[3] = in vivo, Biodistribution of fragment, Bone
[4] = in vivo, Biodistribution of fragment, Heart
[5] = in vivo, Biodistribution of fragment, Intestines
[6] = in vivo, Biodistribution of fragment, Kidneys
[7] = in vivo, Biodistribution of fragment, Liver
[8] = in vivo, Biodistribution of fragment, Lungs
[9] = in vivo, Biodistribution of fragment, Pancreas
[10] = in vivo, Biodistribution of fragment, Spleen
[11] = in vivo, Biodistribution of fragment, Stomach
[12] = in vivo, activity retained in the kidneys at the end of the experiment
[13] = blood, ^111In-labelled fragment ~100 kBq i.v. tail vein, mice without tumours, after 4 h, read-out: Biodistribution of fragment, Blood
[14] = intestines, ^111In-labelled fragment ~100 kBq i.v. tail vein, mice without tumours, after 4 h, read-out: Biodistribution of fragment, Intestines
[15] = kidneys, ^111In-labelled fragment ~100 kBq i.v. tail vein, mice without tumours, after 4 h, read-out: Biodistribution of fragment, Kidneys
[16] = kidneys, ^111In-labelled fragments, mice without tumours, 4 h after injection, summary in text of S3 Table, read-out: activity retained in the kidneys at the end of the experiment
[17] = liver, ^111In-labelled fragment ~100 kBq i.v. tail vein, mice without tumours, after 4 h, read-out: Biodistribution of fragment, Liver
[18] = lungs, ^111In-labelled fragment ~100 kBq i.v. tail vein, mice without tumours, after 4 h, read-out: Biodistribution of fragment, Lungs
[19] = spleen, ^111In-labelled fragment ~100 kBq i.v. tail vein, mice without tumours, after 4 h, read-out: Biodistribution of fragment, Spleen
[20] = stomach, ^111In-labelled fragment ~100 kBq i.v. tail vein, mice without tumours, after 4 h, read-out: Biodistribution of fragment, Stomach
[21] = in vivo, Biodistribution of fragment, Muscle

Molecule	tissue uptake at 4 h [1, 2]	tissue uptake at 4 h [1, 3]	tissue uptake at 4 h [1, 4]	tissue uptake at 4 h [1, 5]	tissue uptake at 4 h [1, 6]	tissue uptake at 4 h [1, 7]	tissue uptake at 4 h [1, 8]	tissue uptake at 4 h [1, 9]	tissue uptake at 4 h [1, 10]	tissue uptake at 4 h [1, 11]	tissue uptake at 4 h [1, 12]	fragment found (meprin α)	cleaved bond (meprin β)	other results
CC(C)[C@H](NC(=O)[C@H](C)NC(=O)[C@H](CCC(=O)O)NC(=O)[C@@H](N)CCC(=O)O)C(=O)N[C@@H](CCCCNC(=O)CCC(C(=O)O)N1CCN(CC(=O)O)CCN(CC(=O)O)CC1)C(N)=O (stereo partly drawn) [CL1-F1] (H-EEAVK(NODAGA)-NH2)	0.01 %ID/g	0.05 %ID/g	0.01 %ID/g	0.22 %ID/g	2.28 %ID/g	0.07 %ID/g	0.03 %ID/g	0.01 %ID/g	0.03 %ID/g	0.02 %ID/g	< 4 %ID/g			
CC(C)[C@H](NC(=O)[C@H](C)NC(=O)[C@@H](N)CCC(=O)O)C(=O)N[C@@H](CCCCNC(=O)CCC(C(=O)O)N1CCN(CC(=O)O)CCN(CC(=O)O)CC1)C(N)=O (stereo partly drawn) [CL1-F2] (H-EAVK(NODAGA)-NH2)	0.01 %ID/g	0.06 %ID/g	0.02 %ID/g	0.1 %ID/g	2.97 %ID/g	0.08 %ID/g	0.04 %ID/g	0.01 %ID/g	0.03 %ID/g	0.02 %ID/g	< 4 %ID/g			
NC(=O)[C@@H](N)CCCCNC(=O)CCC(C(=O)O)N1CCN(CC(=O)O)CCN(CC(=O)O)CC1 (stereo partly drawn) [CL1-F3]		0.07 %ID/g	0.01 %ID/g	0.09 %ID/g	1.72 %ID/g	0.08 %ID/g	0.03 %ID/g	0.01 %ID/g	0.03 %ID/g	0.02 %ID/g	< 4 %ID/g			
CSCC[C@H](NC(=O)[C@H](Cc1ccc(O)cc1)NC(=O)[C@@H](N)CC(=O)O)C(=O)NCC(=O)N[C@@H](Cc1c[nH]c2ccccc12)C(=O)N[C@@H](CCSC)C(=O)N[C@@H](CC(=O)O)C(=O)N[C@@H](Cc1ccccc1)C(=O)N[C@@H](CCCCNC(=O)CCC(C(=O)O)N1CCN(CC(=O)O)CCN(CC(=O)O)CC1)C(N)=O (stereo partly drawn) [CL2-F1]														tissue uptake at 4 h [1, 13]: 0.02 %ID/g; tissue uptake at 4 h ([1]; bone, ^111In-labelled fragment ~100 kBq i.v. tail vein, mice without tumours, after 4 h, read-out: Biodistribution of fragment, Bone): 0.06 %ID/g; tissue uptake at 4 h ([1]; heart, ^111In-labelled fragment ~100 kBq i.v. tail vein, mice without tumours, after 4 h, read-out: Biodistribution of fragment, Heart): 0.02 %ID/g; tissue uptake at 4 h [1, 14]: 0.15 %ID/g; tissue uptake at 4 h [1, 15]: 2.5 %ID/g; tissue uptake at 4 h [1, 16]: < 4 %ID/g; tissue uptake at 4 h [1, 17]: 0.17 %ID/g; tissue uptake at 4 h [1, 18]: 0.04 %ID/g; tissue uptake at 4 h ([1]; pancreas, ^111In-labelled fragment ~100 kBq i.v. tail vein, mice without tumours, after 4 h, read-out: Biodistribution of fragment, Pancreas): 0.02 %ID/g; tissue uptake at 4 h [1, 19]: 0.07 %ID/g; tissue uptake at 4 h [1, 20]: 0.04 %ID/g; Biodistribution of fragment, Muscle (CD1 nu/nu mice): 0.00 %iA/g
NC(=O)[C@H](CCCCNC(=O)CCC(C(=O)O)N1CCN(CC(=O)O)CCN(CC(=O)O)CC1)NC(=O)[C@H](Cc1ccccc1)NC(=O)[C@@H](N)CC(=O)O (stereo partly drawn) [CL2-F2]	0.01 %ID/g	0.01 %ID/g	0.01 %ID/g	0.14 %ID/g	2.11 %ID/g	0.11 %ID/g	0.03 %ID/g	0.02 %ID/g	0.04 %ID/g	0.03 %ID/g	< 4 %ID/g			tissue uptake at 4 h [1, 21]: 0.01 %ID/g
NC(=O)[C@H](CCCCNC(=O)CCC(C(=O)O)N1CCN(CC(=O)O)CCN(CC(=O)O)CC1)NC(=O)[C@H](CO)NC(=O)[C@@H]1CCCN1C(=O)[C@@H]1CCCN1C(=O)[C@@H]1CCCN1C(=O)[C@H](CCC(=O)O)NC(=O)[C@@H](N)CC(=O)O (stereo partly drawn) [CL3-F1] (H-DEPPPSK(NODAGA)-NH2)														tissue uptake at 4 h [1, 13]: 0.01 %ID/g; tissue uptake at 4 h [1, 14]: 0.04 %ID/g; tissue uptake at 4 h [1, 15]: 1.71 %ID/g; tissue uptake at 4 h [1, 16]: < 4 %ID/g; tissue uptake at 4 h [1, 17]: 0.04 %ID/g; tissue uptake at 4 h [1, 18]: 0.02 %ID/g; tissue uptake at 4 h [1, 19]: 0.01 %ID/g; tissue uptake at 4 h [1, 20]: 0.01 %ID/g; Biodistribution of fragment, Heart (CD1 nu/nu mice): 0.00 %iA/g; Biodistribution of fragment, Muscle (CD1 nu/nu mice): -0.01 %iA/g; Biodistribution of fragment, Pancreas (CD1 nu/nu mice): 0.00 %iA/g

More lines, main results first:

tissue uptake at 4 h [1, 2]	tissue uptake at 4 h [1, 3]	tissue uptake at 4 h [1, 4]	tissue uptake at 4 h [1, 5]	tissue uptake at 4 h [1, 6]	tissue uptake at 4 h [1, 7]	tissue uptake at 4 h [1, 8]	tissue uptake at 4 h [1, 9]	tissue uptake at 4 h [1, 10]	tissue uptake at 4 h [1, 11]	tissue uptake at 4 h [1, 12]	fragment found (meprin α)	cleaved bond (meprin β)	Molecule	other results
0.02 %ID/g	0.21 %ID/g	0.01 %ID/g	0.1 %ID/g	2.22 %ID/g	0.07 %ID/g	0.04 %ID/g	0.01 %ID/g	0.03 %ID/g	0.02 %ID/g	< 4 %ID/g			NC(=O)[C@H](CCCCNC(=O)CCC(C(=O)O)N1CCN(CC(=O)O)CCN(CC(=O)O)CC1)NC(=O)[C@H](CO)NC(=O)[C@@H]1CCCN1C(=O)[C@@H]1CCCN1C(=O)[C@@H]1CCCN1C(=O)[C@@H](N)CCC(=O)O (stereo partly drawn) [CL3-F2] (H-EPPPSK(NODAGA)-NH2)	tissue uptake at 4 h [1, 21]: 0.02 %ID/g
											IEW –K(natIn-NODAGA)	E-D and D-E	HGEGTFTSDLSKQNleEEEAVRLFIEWLKNGGPSEDEPPPSK(NODAGA)-NH2	cleaved bond (meprin α): D-E
											IEWL-DFK(natIn-NODAGA)-NH2	G-D and M-D	HGEGTFTSDLSKQNleEEEAVRLFIEWLKNGGPSSGDYMGWMDFK(NODAGA)-NH2	cleaved bond (meprin α): M-D and G-G
											IEW-AVK(natIn-NODAGA)-NH2	Nle-E and E-E and V-K(^natIn-NODAGA)	HGEGTFTSDLSKQNleEEEAVRLFIEWLKNGGPSSGQNleEEEAVK(NODAGA)-NH2	
